# Patent US10472394B2, “Cyclosporine analogue mixtures and their use as immunomodulating agents” (Aurinia Pharmaceuticals Inc., priority 2001, dated 2019)
# Key:
# [1] = pharmacokinetics in the rabbit model (i.v.); assay type: in vivo; conditions: for Area under the curve, mean ± SD / Cmax, mean ± SD: 10 mg/kg/day i.v.
# Procedure: (§3) On Days 1 and 7, blood samples were collected prior to drug administration and at 0.5, 1, 2, 4, 8, 12, 18, and 24 hours post-dose to generate a pharmacokinetic profile. Other evaluated parameters included clinical observations, body weight, food consumption, hematology, clinical chemistry, gross pathology, and histopathological examination of selected tissues/organs.
# Blood samples were analyzed via high performance liquid chromatography coupled with mass spectrometry (LCMS).
# [2] = system: collagen-induced arthritis; test: collagen-induced arthritis model; assay type: in vivo, mouse
# Procedure: Male DBA/1 Lac J mice, kept under virus antibody free conditions, were immunized subcutaneously at 8 to 10 weeks of age with 100 microgram of chick type II collagen, emulsified in Freund's complete adjuvant. […] Animals assigned to the treatment protocol (12/group) were dosed starting on the day of disease onset (˜Day 28) until sacrifice on Day 38.
# Evaluated parameters included mortality, serum creatinine, histology, and outcome assessments, such as clinical scoring (visual), hind paw swelling, histological scoring, erosion scoring, and immunohistochemistry.
# Erosion scoring was done in a blinded manner by examining sagittal sections of the proximal interphalangeal (PIP) joint of the middle digit for the presence or absence of erosions (defined as demarcated defects in cartilage or bone filled with inflammatory tissue). This approach allowed for comparisons of the same joint.
# [3] = system: Mouse Islet Allografts; test: islet cell allotransplantation in diabetic mice
# Text: Blood glucose was monitored daily until the time of graft failure, as defined by a glucose level greater than 17 mmol/L on two consecutive days.
# [4] = system: chromosome aberration; test: in vitro chromosome aberration assay; assay type: cell-based
# Text: (§1) No carcinogenicity studies have been completed to date.
# [5] = 30-day toxicokinetic/toxicity study in the rabbit model
# Procedure: as §3
# [6] = system: antigen-induced arthritis; test: antigen-induced arthritis model; assay type: in vivo, rabbit
# Procedure: New Zealand White rabbits, maintained under specific pathogen free conditions, were immunized with 10 mg of ovalbumin in saline emulsified with Freund's complete adjuvant that was given intramuscularly and subcutaneously into several sites in the nape of the neck. Fourteen days later, all animals started receiving 2 daily intra-articular injections of 5 mg ovalbumin and 65 ng of human recombinant transforming growth factor 2 in saline.
# Animals assigned to the treatment protocol (8/group) were dosed starting on the day of disease onset (˜Day 28) until sacrifice on Day 42.
# Evaluated parameters included mortality, body weight, serum creatinine, histology, and outcome assessments such as knee joint swelling, synovial fluid counts, gross postmortem analysis, and histology.
# [7] = system: bacterial reverse mutation; test: in vitro bacterial reverse mutation assay; assay type: cell-based
# Text: as §1
# [8] = system: production of intracellular cytokines by T cells; test: whole blood assay: intracellular cytokine production by T cells; assay type: cell-based, cynomolgous monkeys; conditions: mitogen stimulated
# Procedure: (§2) Lymphocyte proliferation was assessed by tritium-labeled thymidine incorporation and by flow-cytometric analysis of expression of proliferating cell nuclear antigen (PCNA) on cells in SG2M phase. Flow cytometry was also used to assess production of intracellular cytokines by T cells and expression of T lymphocyte activation antigens.
# [9] = system: lymphocyte proliferation; test: whole blood assay: lymphocyte proliferation; assay type: cell-based, cynomolgous monkeys; conditions: mitogen stimulated
# Procedure: as §2
# [10] = repeated-dose oral toxicity studies; assay type: in vivo, rats, dogs, and primates
# [11] = system: calcineurin phosphatase activity; test: calcineurin (CN) inhibition assay; assay type: biochemical; conditions: FIG. 11; ISATX247 isomer mixture
# Text: The use of cyclosporine derivatives, a class of cyclic polypeptides produced by the fungus Tolypocladium inflatum Gams, is increasing in immunosuppressive therapy due to their preferential effects on T-cell mediated reactions. […] This action is primarily mediated through cyclosporine A-induced inhibition of calcineurin, a phosphatase enzyme found in the cytoplasm of cells (Schreiber and Crabtree, 1992).
# [12] = system: micronucleus; test: in vivo rat micronucleus assay
# Text: as §1
# [13] = reproductive toxicity studies; assay type: in vivo, pregnant rats and rabbits
# Text: as §1
# [14] = system: T lymphocyte activation antigens; test: whole blood assay: expression of T lymphocyte activation antigens; assay type: cell-based, cynomolgous monkeys; conditions: mitogen stimulated
# Procedure: as §2
# [15] = system: Transplanted Rat Hearts; test: rat heart transplant model (heterotopic, Wistar Furth to Lewis); assay type: in vivo
# Text: If graft dysfunction was noted during the 30-day post-transplantation period, the animal was sacrificed. If the animal survived longer than 30 days post-transplantation, the test and control articles were discontinued and the animal was allowed to continue until graft dysfunction or up to 100 days post-transplantation.
structure (smiles),measurement,setting,value
C=C/C=C/C[C@@H](C)[C@@H](O)[C@H]1C(=O)N[C@@H](CC)C(=O)N(C)CC(=O)N(C)[C@@H](CC(C)C)C(=O)N[C@@H](C(C)C)C(=O)N(C)[C@@H](CC(C)C)C(=O)N[C@@H](C)C(=O)N[C@H](C)C(=O)N(C)[C@@H](CC(C)C)C(=O)N(C)[C@@H](CC(C)C)C(=O)N(C)[C@@H](C(C)C)C(=O)N1C [ISATX247],pharmacokinetic parameters in female rabbits compared with male rabbits,"[1]; 10 mg/kg/day, exception: maximum concentration on Day 7",not significantly different
same,pharmacokinetic parameters compared with cyclosporine A,"[1]; male rabbits, 10 mg/kg/day",no statistically significantly differences
same,"Area under the curve, mean ± SD","[1]; male rabbits, Day 1",5.659 ± 1.309 µg·h/mL
same,"Cmax, mean ± SD","[1]; male rabbits, Day 1",1.915 ± 0.149 µg/mL
same,"Area under the curve, mean ± SD","[1]; male rabbits, Day 7",5.697 ± 1.373 µg·h/mL
same,"Cmax, mean ± SD","[1]; male rabbits, Day 7",1.959 ± 0.47 µg/mL
same,negative erosion scores compared to vehicle group,[2]; 250 μg/mouse i.p.,higher negative erosion scores
same,development of joint erosions (PIP joints),[2]; 500 μg/mouse,significantly prevent
same,negative erosion scores compared to vehicle group,[2]; 500 μg/mouse i.p.,significantly higher
same,Mean Survival,[3]; 1.75 mg/kg/day i.p.,18.7
same,Mean Survival,[3]; 10 mg/kg/day i.p.,19.2
same,Mean Survival,[3]; 25 mg/kg/day i.p.,46.4
same,toxicity compared with cyclosporine A as the dose level increased,[3]; especially apparent at 25 mg/kg/day,less toxic than cyclosporine A
same,mutagenic activity,[4],does not exhibit mutagenic activity
same,examination of organs,[5]; 5 mg/kg,no significant abnormalities
same,examination of organs,[5]; 10 mg/kg,no significant abnormalities
same,increase in serum creatinine levels,[5]; 15 mg/kg/day,did not result in any significant increase
same,examination of organs,"[5]; 3 female rabbits that completed the study, 15 mg/kg",No changes
same,Percent Change in Serum Creatine Levels Over Baseline,"[5]; male rabbits, 10 mg/kg, Day 15",+1%
same,Percent Change in Serum Creatine Levels Over Baseline,"[5]; male rabbits, 10 mg/kg, Day 30",+10%
same,examination of organs: spermatogenesis,"[5]; male rabbits, 15 mg/kg",a decrease in spermatogenesis
same,Percent Change in Serum Creatine Levels Over Baseline,"[5]; male rabbits, 15 mg/kg, Day 15",−19%
same,Percent Change in Serum Creatine Levels Over Baseline,"[5]; male rabbits, 15 mg/kg, Day 30",−11%
same,hematological parameters,"[5]; rabbit, in vivo",No significant changes
same,synovial fluid counts,[6]; prevention protocol,significant reductions
same,synovial histopathological scores compared to vehicle control,"[6]; prevention protocol, after 28 days of therapy, s.c.",significant decrease
same,macroscopic arthritis score,"[6]; rabbit, in vivo",significant reduction
same,potency compared with cyclosporine A in treatment and prevention of arthritis,"[6]; rabbit, in vivo",equivalent or potentially more potent than cyclosporine A
same,synovial histopathological scores of animals with established arthritis compared to vehicle controls,"[6]; treatment protocol, 14 days of treatment",Significant amelioration
same,mutagenic activity,[7],does not exhibit mutagenic activity
same,"EC50, IFN-production",[8],0.10267 mg/L
same,"EC50, IL-2 production",[8],0.10335 mg/L
same,"EC50, TNF-production",[8],0.09058 mg/L
same,"EC50, 3H-thymidine uptake",[9],0.16054 mg/L
same,"EC50, PCNA expression",[9]; flow cytometry,0.19772 mg/L
same,only toxicological effect noted in all species,[10],diarrhea/loose feces
same,tolerability,"[10]; rats, dogs, primates",well-tolerated
same,potency of inhibition of calcineurin phosphatase activity compared to cyclosporine A (as determined by IC50),[11],≤ 3 fold
same,mutagenic activity,[12],does not exhibit mutagenic activity
same,embryotoxicity,[13]; at doses that resulted in maternal toxicity,corresponding embryotoxicity was observed
same,treatment-related malformations or alterations,[13]; pregnant rats and rabbits,no treatment-related malformations or alterations
same,"EC50, CD 11a expression",[14],0.2044 mg/L
same,"EC50, CD 25 expression",[14],0.121 mg/L
same,"EC50, CD 71 expression",[14],0.14984 mg/L
same,"EC50, CD 95 expression",[14],0.12998 mg/L
same,"EC50, CD 154 expression",[14],0.16087 mg/L
same,increase of survival time over Cyclosporine A,[15]; 1.75 mg/kg/day,approximately 3 fold
same,graft function after discontinuation of dosing,[15]; 100 days post-transplant (70 days post discontinuation of dosing),still had functioning grafts at 100 days post-transplant
